Assay results taken from patent publication US20020058288A1, “TOXOPLASMA GONDII GLYCOCONJUGATES” (priority 1995, published 2002).

Tested on: Wistaria floribunda agglutinin
Test: Lectin affinity chromatography on W. floribunda agglutinin agarose
Format: binding
Settings: elution with 100 mM N-acetylgalactosamine as specific inhibitor, FIG. 7
Description: Lectin affinity chromatography was performed as previously described (Nakano et al., Arch. Biochem. Biophys. 311, 117-126, 1994). Briefly, radiolabeled core glycans derived from glycolipid II, III (core glycan A and B respectively) and rat brain THY1 membrane anchor were applied to a 1 ml column of W. floribunda agglutinin agarose (5 mg lectin/ml gel) equilibrated in 50 mM Tris-HCl, pH 7.4 containing 0.02% sodium azide. Elution was accomplished using 25 ml of equilbration buffer followed by 15 ml of the same buffer containing 100 mM N-acetylgalactosamine as specific inhibitor.
FIG. 7: Analysis of core glycans derived from TLC purified glycolipids labelled with ^3H glucosamine on Wisaria floribunda agglutinin agarose: Core glycan A (A), core glycan (B), Man4GalNAcAHM from rat brain Thy1 anchor (C), arrow indicates buffer change

Substance: Man3(GalNAc)AHM [Core glycan A]
- Affinity towards W. floribunda agglutinin column: bound to the column
